Test results as given in publication PMC9995496, “A screen for MeCP2-TBL1 interaction inhibitors using a luminescence-based assay” (Scientific Reports, 2023).

Target: T1, MeCP2-TBL1 interaction (MeCP2-SmBiT / TBL1-LgBiT) (Mus musculus, UniProt Q9QXE7)
T1 construct: expressed in transfected cells; crude lysate used as a cell-free assay
T1 sequence (Q9QXE7 166-527): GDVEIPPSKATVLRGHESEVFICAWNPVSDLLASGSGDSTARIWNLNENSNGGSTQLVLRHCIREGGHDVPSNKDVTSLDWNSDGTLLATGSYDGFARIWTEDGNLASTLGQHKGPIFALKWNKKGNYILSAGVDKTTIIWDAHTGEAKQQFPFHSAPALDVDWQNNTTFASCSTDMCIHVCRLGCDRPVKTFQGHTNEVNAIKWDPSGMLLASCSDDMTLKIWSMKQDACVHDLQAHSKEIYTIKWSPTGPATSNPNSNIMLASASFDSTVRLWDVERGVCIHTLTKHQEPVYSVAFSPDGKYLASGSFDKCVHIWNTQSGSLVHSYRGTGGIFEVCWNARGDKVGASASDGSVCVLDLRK
Experiment: MeCP2-TBL1 NanoLuc luciferase complementation assay (cell-free, extracts of transfected HEK293 cells)
Format: binding, human
From the text: To facilitate the discovery of inhibitors of the interaction between MeCP2 and TBL1/TBLR1, we set out to devise a simple and scalable biochemical assay for measuring the interaction between these two proteins. We initially explored the possibility of screening compound libraries using a previously established fluorescence polarization assay that depends on purified recombinant TBL1/TBLR1[26]. […] The resulting luminescence signal depends on the affinity between the two interacting proteins of interest (Fig. 1A). This method was originally developed to allow for the interrogation of protein–protein interactions in vivo. However, in order to facilitate large scale screening of chemical libraries, we adapted the assay for use as a cell-free system.
We fused the large N-terminal fragment of NanoLuc (LgBiT) to the C-terminus of the WD repeat domains of both TBL1 and TBLR1, and the small C-terminal fragment of NanoLuc (SmBiT) to the C-terminus of the C-terminal half of MeCP2 (Fig. 1B and C). This region of MeCP2 contains the NID (NCoR interaction domain)—the motif in MeCP2 that binds to TBL1/TBLR1.
The AgeI-NotI restriction fragment (encoding EGFP) was then replaced with a codon optimized SmBiT sequence to yield the MeCP2-SmBiT expression plasmid. The TBL1-LgBiT expression vector was derived from a TBL1-mCherry plasmid[25] by replacing the AgeI-NotI restriction fragment (encoding mCherry) with a codon optimized LgBiT sequence. SmBiT-PRKACA and LgBiT-PRKAR2A plasmids are commercially available (Promega, N203 and N204).
Cells were harvested after 24 h and cell pellets were stored at − 80 °C.
In the screens described here, the lysate obtained from a single 15 cm plate was used for 2.5 384-well assay plates. NanoLuc substrate (furimazine) (Promega, N1110) was diluted 1000-fold in passive lysis buffer (Promega, E1941) and added 1:1 to the lysate. Screening libraries were purchased from Asinex[40] and ApexBio (FDA-approved Drug Library, L1021). Compounds were dispensed using an Echo acoustic dispenser and tested at a final concentration of 20 µM in a total assay volume of 20 μl in 384-well plate format. DMSO was added to each well at a final concentration of 0.2% (v/v) and wells containing only DMSO were used as negative control. After 30 min incubation at room temperature, luminescence was measured on a Tecan M1000 multi-mode plate reader. Raw luminescence reads from each well on each plate were normalized to the median luminescence signal for that plate. In the ApexBio screen, the scaled and normalized PKA signal for each compound was subtracted from the MeCP2-TBL1 signal for the same compound. After plate normalization the robust SSMD (SSMD*) was calculated as described elsewhere. A threshold of SSMD* ≥ 3 was applied for discerning primary hits.
Assays were performed as described above except instead of a single concentration, a threefold serial dilution ranging from 60 to 0.03 μM was tested in triplicate for each of the compounds. Half-maximal inhibitory concentrations were calculated using global nonlinear regression by fitting the response data sets of all compounds simultaneously with a four-parameter logistic curve of log inhibitor concentration versus normalized luminescence using GraphPad Prism. During fitting, the maximum and minimum curve values were shared between the data sets.

[1] = primary screen of the Asinex library, sheet "Sargen output Asinex library", one well per compound, Batch Ref. 1
[2] = primary screen of the Asinex library, sheet "Sargen output Asinex library", one well per compound
[3] = primary screen of Asinex library, single well per compound

Compound | Inhibition percent [1] [%] | Inhibition percent [2] [%] | also measured
O=C(Cn1cccn1)N1CCOC(c2cc(C(=O)N3CCOCC3)c3ccccc3n2)C1 (stereo not shown) [BDD_24083810] | -2.04 | – | –
COc1ccc(F)cc1-c1cccc(CC2(C(=O)NCCN3CCCCC3C)CCOCC2)c1 (stereo not shown) [BDD_24116196] | – | 5.71 | –
Cc1cc(C)cc(-c2cccc(CC3(C(=O)NCCCN4CCC(C)CC4)CCOCC3)c2)c1 [BDD_24116218] | – | -2.01 | –
CCCC(=O)N1Cc2ccccc2OC2(CCC(N(C)CC3CCCCC3)CC2)C1 (stereo not shown) [BDD_24804536] | – | -1.18 | –
CC(=O)Nc1cccc([C@@H]2CN(Cc3ccc4c(c3)n(C)c(=O)n4C)C[C@]23CCCCC(=O)N3)c1 [BDD_25153608] | – | -1.53 | –
Cc1cccc(Nc2ccc(C3CCCN3C(=O)COc3ccc4c(c3)OCCO4)nc2)n1 (stereo not shown) [BDD_25671481] | 3.48 | – | –
Cc1cc(-c2cnc(C(C)(C)C)nc2C2CCN(Cc3ccc(N4CCCC4)cc3)CC2)on1 [BDD_25871827] | – | 3.48 | –
Cn1c(=O)c2ccc(C3CCCCN3C(=O)c3cc[nH]n3)nc2n(Cc2ccccc2)c1=O (stereo not shown) [BDD_26868519] | – | 4.40 | –
COc1ccccc1CNC(=O)c1cn(C)nc1CC1CCN(C(=O)c2cccnc2)CC1 [BDD_26909786] | -3.87 | – | –
Cn1cc(CCC(=O)N2CCCC2c2ccc(CNC3Cc4ccccc4C3)cn2)c2ccccc21 (stereo not shown) [BDD_27352850] | – | -1.33 | –
Cc1nc2c(c(Nc3ccccn3)n1)CCN(S(=O)(=O)c1cccc(C(F)(F)F)c1)CC2 [BDD_27755359] | 6.69 | – | –
CC(C)(C)OC(=O)Nc1cc(-c2c[nH]nc2C2CCCCN2C(=O)OC(C)(C)C)ccn1 (stereo not shown) [BDD_27845058] | 10.59 | – | –
CCOc1ccccc1NC(=O)N(C(C)c1ccccc1)C1CCn2c1nc1ccccc1c2=O (stereo not shown) [BDD_27845157] | – | -3.22 | –
O=C(c1ccccn1)N1CCCC1c1cccc(Cc2ccc(C(F)(F)F)cc2)n1 (stereo not shown) [BDD_27852665] | -2.94 | – | –
COc1cccc(Cc2cccc(C3CCCN3C(=O)Cc3ccncc3)n2)c1 (stereo not shown) [BDD_27854270] | – | -2.15 | –
COc1ccccc1Cc1cccc(C2CCCN2C(=O)Cc2c[nH]c3ccccc23)n1 (stereo not shown) [BDD_27856210] | 9.99 | – | –
NC(=O)c1cccc(-c2nccnc2C2CCCN(CCCc3ccccc3)C2)c1 (stereo not shown) [BDD_27892119] | – | -1.40 | –
NC(=O)c1cccc(-c2nccnc2C2CCCN(C(=O)COc3ccc(F)cc3)C2)c1 (stereo not shown) [BDD_27905103] | – | – | Inhibition percent [3]: -2.79
COc1ccc(CCC(=O)N2CCCC(c3cncc(-c4cccc(OC)c4)n3)C2)cc1 (stereo not shown) [BDD_27924033] | 11.34 | – | –
Cc1cc(Nc2cccc(C3CCCN(C(=O)C4CCCCN4C(=O)OC(C)(C)C)C3)n2)[nH]n1 (stereo not shown) [BDD_30366487] | 3.82 | – | –
CNCc1cc(NC)nc(C2CCCN2C(=O)c2cccc(Oc3ccccc3)c2)n1 (stereo not shown) [BDE_23425118] | -0.41 | – | –
CC(=O)N(C)Cc1cc(N(C)C)nc(C2CCCN2C(=O)Cc2ccc3c(c2)CCCC3)n1 (stereo not shown) [BDE_23426204] | – | -14.24 | –
CN(Cc1cc(N(C)C)nc(C2CCCCN2)n1)C(=O)c1ccccc1-c1ccccc1 (stereo not shown) [BDE_23459438] | -3.75 | – | –
Cc1ccc(CC(=O)N2CCCC(c3ncccc3C(=O)NCc3ccccc3)C2)cc1C (stereo not shown) [BDE_24458967] | – | -0.34 | –
Cc1nn(C)cc1C(=O)N1CCCCC1c1ncccc1C(=O)NCc1ccccc1 (stereo not shown) [BDE_24469941] | – | – | Inhibition percent [3]: -0.10
O=C(NCc1ccccc1)c1cccnc1C1CCCCN1CC(=O)N1CCNC1=O (stereo not shown) [BDE_24470675] | -2.87 | – | –
COCCNC(=O)CN1CCCC1c1nc(C)c2c(n1)N(Cc1ccccc1)C(=O)CC2 (stereo not shown) [BDE_24735834] | – | – | Inhibition percent [3]: -1.63
CNc1nc(C2CCCNC2)nc2c1CCN(C(=O)C1(Oc3ccccc3)CCCCC1)C2 (stereo not shown) [BDE_26713143] | – | – | Inhibition percent [3]: -1.93

More lines, main results first:

Inhibition percent [1] [%] | Inhibition percent [2] [%] | Compound | also measured
-1.66 | – | Cc1ccccc1OCCN1C(=O)CCc2c(C)nc(CN(C)C(=O)C3CCCC3)nc21 [BDE_24687458] | –
-0.22 | – | Cc1nnc(N2CCC(C3CC=CCN(Cc4ccc(F)cc4)C3=O)CC2)c2ccccc12 (stereo not shown) [BDE_24723072] | –
-0.38 | – | Cc1nc(C2CCN(C(=O)C3CCCC3)CC2)nc2c1CCC(=O)N2CCc1ccccc1 [BDE_24748773] | –
– | 8.09 | O=C(NCCc1ccc(Cl)cc1)C1(Cc2cc(-c3ccccc3)no2)CCCO1 (stereo not shown) [BDE_24757019] | –
– | -2.53 | CC1CCN(C(=O)CN2CCC(C3CCCCN(CCc4ccccc4)C3=O)CC2)CC1 (stereo not shown) [BDE_25214814] | –
-0.77 | – | Cc1c(C(=O)N2CCC(C3(C)CCCCN(CCc4ccccc4)C3=O)CC2)cnn1C (stereo not shown) [BDE_25215150] | –
– | 2.24 | CC(=O)N1CCc2nc(C3CCCN(C)C3)nc(NCCCc3ccccc3Cl)c2C1 (stereo not shown) [BDE_25356631] | –
– | 1.06 | CC(=O)N1CCC(c2nc3c(c(NCCOc4cccc(C)c4C)n2)CN(C)CC3)CC1 [BDE_25367865] | –
– | -2.49 | CC(=O)N1CCc2nc(C3CCN(C)CC3)nc(NCCCN(C)c3ccccc3)c2C1 [BDE_25368265] | –
-4.16 | – | COCCc1ncc(CN2CCCC2c2cc(Cc3cccc(OC)c3)cc(C)n2)cn1 (stereo not shown) [BDE_25403133] | –
3.10 | – | COc1ccc(Cc2ccc(C3CCCN3C(=O)CCn3ncc4ccccc43)nc2)cc1 (stereo not shown) [BDE_25650039] | –
– | -0.14 | O=C(Cc1c[nH]c2ccccc12)N1CCC2(CC=CCN(Cc3ccc(F)cc3)C2=O)CC1 [BDE_25848651] | –
– | -2.37 | COCCN1CC=CCC2(CCN(CC(=O)N(Cc3ccccc3)C(C)C)CC2)C1=O [BDE_25851451] | –
-0.81 | – | Nc1nc(-c2ccccc2)nc2nc(C3CCCN(C(=O)COc4ccccc4)C3)ccc12 (stereo not shown) [BDE_26160293] | –
1.13 | – | Cc1cc(CCCC(=O)N2CCCC2c2cccc(Nc3nncs3)n2)ccc1F (stereo not shown) [BDE_26594959] | –
34.22 | – | CN(C)c1ncc(-c2cccc(F)c2)c(C2CCCCN2C(=O)COc2ccccc2)n1 (stereo not shown) [BDE_26725534] | –
20.50 | – | COc1cccc(CC(=O)N2CCC(c3nc(N(C)C)ncc3-c3ccccc3F)CC2)c1 [BDE_26728718] | –
– | -1.75 | Cc1nc(C2CCCN2C(=O)c2ccncc2)nc2c1CCC(=O)N2CCc1ccccc1 (stereo not shown) [BDE_26909882] | –
– | -1.96 | O=C(c1ccccn1)N1CCCC1c1cc(CCOc2cccc(C(F)(F)F)c2)[nH]n1 (stereo not shown) [BDE_27113075] | –
– | -2.00 | CN(CCC(=O)N1CCCC1c1cncc(Cc2cccc(Cl)c2)n1)Cc1cccnc1 (stereo not shown) [BDE_27213557] | –
– | -3.79 | O=C(CCCNc1ncccn1)N1CCCC1c1cncc(Cc2cccc(Cl)c2)n1 (stereo not shown) [BDE_27217604] | –
-0.64 | – | Cc1nc(C2CCN(C(=O)c3cccnc3)CC2)nc2c1CCCN2CCc1ccccc1 [BDE_27576245] | –
-1.68 | – | Cc1nc2c(c(Nc3ccccn3)n1)CCN(C(=O)C1CCCCN1C(=O)OC(C)(C)C)C2 (stereo not shown) [BDE_27755327] | –
– | 6.28 | Cc1cc(C2CCCN(Cc3ccc(-c4ccccc4C(=O)O)o3)C2)ccn1 (stereo not shown) [BDE_30686588] | –
-2.12 | – | O=C(O)c1ccccc1-c1ccc(CN2CCCC2c2ccncn2)cc1 (stereo not shown) [BDE_30687637] | –
– | -0.80 | Cc1nccc(C2CCCN2Cc2ccc(-c3ccccc3C(=O)O)cc2)n1 (stereo not shown) [BDE_30687639] | –
– | -2.37 | CNc1cccc(C2CCCN2Cc2ccc(-c3ccccc3C(=O)O)cc2)n1 (stereo not shown) [BDE_30687673] | –
